Experiments:
cardiac microtissues [1] = assay: Ingenuity Pathway Analysis over-representation of differentially expressed genes (activation Z-score); format: cell-based, human; conditions: 48hr high; Group 2
cardiac microtissues [2] = assay: ATP depletion (CellTiter Glo Luminescent Cell Viability Assay) in cardiac microtissues; format: cell-based, human; conditions: the concentration is the IC30 of ATP depletion, or cell death caused
Experimental: Cellular ATP concentrations were also assessed using the CellTiter Glo® Luminescent Cell Viability Assay as per the manufacturer’s instructions (Promega).

cardiac microtissues [3] = assay: Transcriptomic profiling (mRNA-seq) and DESeq2 differential gene expression analysis in cardiac microtissues; conditions: absolute log2(Fold-Change) > 1, FDR p ≤ 0.05

Question: Which “activation Z-score: CLEAR Signaling Pathway” value (cardiac microtissues [1]) does the source give for `CCN(CC)CCNC(=O)c1c(C)[nH]c(/C=C2\C(=O)Nc3ccc(F)cc32)c1C` [Sunitinib Malate] here?
Answer: The value was -0.5.

Question: And the “activation Z-score: Cardiac Hypertrophy Signaling (Enhanced)” value (cardiac microtissues [1])?
Answer: The value was -3.53.

Question: What about the “activation Z-score: Cell Cycle: G2/M DNA Damage Checkpoint Regulation” value (cardiac microtissues [1]) of the same compound?
Answer: The value was -3.

Question: And the “activation Z-score: Colorectal Cancer Metastasis Signaling” value (cardiac microtissues [1])?
Answer: The value was -3.578.

Question: What about the “activation Z-score: Cyclins and Cell Cycle Regulation” value (cardiac microtissues [1]) of the same compound?
Answer: The value was 2.333.

Question: And the “activation Z-score: ERK5 Signaling” value (cardiac microtissues [1])?
Answer: Its value is -2.

Question: And the “activation Z-score: Endothelin-1 Signaling” value (cardiac microtissues [1])?
Answer: The value was -2.496.

Question: And the “activation Z-score: G-Protein Coupled Receptor Signaling” value (cardiac microtissues [1])?
Answer: Its value is -3.212.

Question: And the “activation Z-score: GP6 Signaling Pathway” value (cardiac microtissues [1])?
Answer: The value was -4.123.

Question: What about the “activation Z-score: Glioblastoma Multiforme Signaling” value (cardiac microtissues [1]) of the same compound?
Answer: The value was -2.333.

Question: What about the “activation Z-score: HGF Signaling” value (cardiac microtissues [1]) of the same compound?
Answer: Its value is -2.333.

Question: What about the “activation Z-score: HIF1Î± Signaling” value (cardiac microtissues [1]) of the same compound?
Answer: Its value is -3.464.

Question: And the “activation Z-score: HMGB1 Signaling” value (cardiac microtissues [1])?
Answer: Its value is -3.357.

Question: And the “activation Z-score: Hepatic Fibrosis Signaling Pathway” value (cardiac microtissues [1])?
Answer: The value was -4.768.

Question: And the “activation Z-score: IL-6 Signaling” value (cardiac microtissues [1])?
Answer: Its value is -2.309.

Question: What about the “activation Z-score: IL-8 Signaling” value (cardiac microtissues [1]) of the same compound?
Answer: Its value is -3.051.

Question: What about the “activation Z-score: IL-13 Signaling Pathway” value (cardiac microtissues [1]) of the same compound?
Answer: The value was -2.496.

Question: What about the “activation Z-score: IL-15 Production” value (cardiac microtissues [1]) of the same compound?
Answer: Its value is -2.449.

Question: And the “activation Z-score: ILK Signaling” value (cardiac microtissues [1])?
Answer: Its value is -3.357.

Question: What about the “activation Z-score: Immunogenic Cell Death Signaling Pathway” value (cardiac microtissues [1]) of the same compound?
Answer: The value was -2.646.

Question: And the “activation Z-score: Inhibition of Angiogenesis by TSP1” value (cardiac microtissues [1])?
Answer: Its value is -2.

Question: And the “activation Z-score: Integrin Signaling” value (cardiac microtissues [1])?
Answer: The value was -3.606.

Question: What about the “activation Z-score: Intrinsic Prothrombin Activation Pathway” value (cardiac microtissues [1]) of the same compound?
Answer: Its value is -2.

Question: What about the “activation Z-score: Kinetochore Metaphase Signaling Pathway” value (cardiac microtissues [1]) of the same compound?
Answer: The value was 3.266.

Question: And the “activation Z-score: LXR/RXR Activation” value (cardiac microtissues [1])?
Answer: The value was 0.905.

Question: And the “activation Z-score: Leukocyte Extravasation Signaling” value (cardiac microtissues [1])?
Answer: Its value is -2.065.

Question: And the “activation Z-score: MIF Regulation of Innate Immunity” value (cardiac microtissues [1])?
Answer: The value was -2.

Question: And the “activation Z-score: MYC Mediated Apoptosis Signaling” value (cardiac microtissues [1])?
Answer: The value was -1.633.

Question: And the “activation Z-score: Macrophage Alternative Activation Signaling Pathway” value (cardiac microtissues [1])?
Answer: Its value is -2.558.

Question: What about the “activation Z-score: Oncostatin M Signaling” value (cardiac microtissues [1]) of the same compound?
Answer: Its value is -2.236.

Question: What about the “activation Z-score: Osteoarthritis Pathway” value (cardiac microtissues [1]) of the same compound?
Answer: Its value is -2.711.

Question: And the “activation Z-score: Oxytocin Signaling Pathway” value (cardiac microtissues [1])?
Answer: Its value is -2.324.

Question: What about the “activation Z-score: PAK Signaling” value (cardiac microtissues [1]) of the same compound?
Answer: The value was -2.236.

Question: And the “activation Z-score: PPAR Signaling” value (cardiac microtissues [1])?
Answer: The value was 2.646.

Question: What about the “activation Z-score: Pancreatic Adenocarcinoma Signaling” value (cardiac microtissues [1]) of the same compound?
Answer: The value was -2.121.

Question: And the “activation Z-score: Paxillin Signaling” value (cardiac microtissues [1])?
Answer: Its value is -2.

Question: What about the “activation Z-score: Production of Nitric Oxide and Reactive Oxygen Species in Macrophages” value (cardiac microtissues [1]) of the same compound?
Answer: Its value is -3.051.

Question: What about the “activation Z-score: Prostanoid Biosynthesis” value (cardiac microtissues [1]) of the same compound?
Answer: Its value is -2.

Question: And the “activation Z-score: Pulmonary Fibrosis Idiopathic Signaling Pathway” value (cardiac microtissues [1])?
Answer: The value was -5.692.

Question: What about the “activation Z-score: Pulmonary Healing Signaling Pathway” value (cardiac microtissues [1]) of the same compound?
Answer: Its value is -2.449.

Question: What about the “activation Z-score: Pyridoxal 5'-phosphate Salvage Pathway” value (cardiac microtissues [1]) of the same compound?
Answer: The value was 1.342.

Question: And the “activation Z-score: RAC Signaling” value (cardiac microtissues [1])?
Answer: Its value is -1.89.

Question: And the “activation Z-score: RHOGDI Signaling” value (cardiac microtissues [1])?
Answer: The value was 3.606.

Question: What about the “activation Z-score: Regulation Of The Epithelial Mesenchymal Transition By Growth Factors Pathway” value (cardiac microtissues [1]) of the same compound?
Answer: The value was -4.243.

Question: And the “activation Z-score: Regulation of Cellular Mechanics by Calpain Protease” value (cardiac microtissues [1])?
Answer: Its value is -2.236.

Question: What about the “activation Z-score: Regulation of eIF4 and p70S6K Signaling” value (cardiac microtissues [1]) of the same compound?
Answer: The value was -1.342.

Question: And the “activation Z-score: Renin-Angiotensin Signaling” value (cardiac microtissues [1])?
Answer: The value was -2.449.

Question: What about the “activation Z-score: Ribonucleotide Reductase Signaling Pathway” value (cardiac microtissues [1]) of the same compound?
Answer: Its value is -1.291.

Question: What about the “activation Z-score: Role of JAK family kinases in IL-6-type Cytokine Signaling” value (cardiac microtissues [1]) of the same compound?
Answer: The value was -2.668.

Question: What about the “activation Z-score: Role of NFAT in Cardiac Hypertrophy” value (cardiac microtissues [1]) of the same compound?
Answer: Its value is -3.162.

Question: What about the “activation Z-score: STAT3 Pathway” value (cardiac microtissues [1]) of the same compound?
Answer: Its value is -1.414.

Question: What about the “activation Z-score: Salvage Pathways of Pyrimidine Ribonucleotides” value (cardiac microtissues [1]) of the same compound?
Answer: Its value is 1.134.

Question: And the “activation Z-score: Senescence Pathway” value (cardiac microtissues [1])?
Answer: Its value is -3.3.

Question: And the “activation Z-score: Signaling by Rho Family GTPases” value (cardiac microtissues [1])?
Answer: Its value is -3.638.

Question: What about the “activation Z-score: TREM1 Signaling” value (cardiac microtissues [1]) of the same compound?
Answer: Its value is -2.646.

Question: What about the “activation Z-score: Type II Diabetes Mellitus Signaling” value (cardiac microtissues [1]) of the same compound?
Answer: Its value is -1.342.

Question: What about the “activation Z-score: White Adipose Tissue Browning Pathway” value (cardiac microtissues [1]) of the same compound?
Answer: Its value is -2.714.

Question: What about the “activation Z-score: Wound Healing Signaling Pathway” value (cardiac microtissues [1]) of the same compound?
Answer: The value was -4.964.

Question: What about the “activation Z-score: iNOS Signaling” value (cardiac microtissues [1]) of the same compound?
Answer: Its value is -2.236.

Question: What about the “Transcriptomic high concentration (µM) = IC30 of ATP depletion” value (cardiac microtissues [2]) of the same compound?
Answer: The value was 3.53 µM.

Question: And the “number of significant differentially expressed genes, 6hr high” value (cardiac microtissues [3]; 6 hr, high concentration)?
Answer: The value was 10.

Question: What about the “number of significant differentially expressed genes, 6hr low” value (cardiac microtissues [3]; 6 hr, low concentration) of the same compound?
Answer: The value was 0.

Question: And the “number of significant differentially expressed genes, 48hr high” value (cardiac microtissues [3]; 48 hr, high concentration)?
Answer: The value was 861.

Question: And the “number of significant differentially expressed genes, 48hr low” value (cardiac microtissues [3]; 48 hr, low concentration)?
Answer: The value was 399.

Question: What about the “number of significant differentially expressed genes, 72hr high” value (cardiac microtissues [3]; 72 hr, high concentration) of the same compound?
Answer: The value was 152.

Question: And the “number of significant differentially expressed genes, 72hr low” value (cardiac microtissues [3]; 72 hr, low concentration)?
Answer: The value was 71.
